In PMC10120463 (Journal of Enzyme Inhibition and Medicinal Chemistry, 2023):

Experiment: Haemolysis assay
Type: cell-based
Details: rabbit, rabbit red blood cell suspension

SMILES: C[C@@H]1[C@H](O)[C@@H](C)/C=C/C=C/C=C/C=C/C=C/C=C/C=C/[C@H](O[C@@H]2O[C@H](C)[C@@H](O)[C@H](N)[C@@H]2O)C[C@@H]2O[C@](O)(C[C@@H](O)C[C@@H](O)[C@H](O)CC[C@@H](O)C[C@@H](O)CC(=O)O[C@H]1C)C[C@H](O)[C@H]2C(=O)O [AmB, amphotericin B]
- hemolysis at 1 h, 32 µg/mL: 53.5%
